The structures appear in SMILES notation. pIC50: −log10 of the molar value. Positions of bridges follow the written chain, without caps; N, C: chain ends. Non-standard residues stand in square brackets, D forms with d. Residues, ends and D or L forms follow the SMILES beside them. Bip = N[C@@H](Cc1ccc(-c2ccccc2)cc1)C(=O)O; NMeF = CN[C@@H](Cc1ccccc1)C(=O)O; NMeA = CN[C@@H](C)C(=O)O; Dab = NCC[C@H](N)C(=O)O; Nva = CCC[C@H](N)C(=O)O; Dap = NC[C@H](N)C(=O)O; Aib = CC(C)(N)C(=O)O

The target in this test is T1, human PD-1 (Jurkat-PD-1 cells) / PE-labeled human PD-L1-Ig (Homo sapiens, UniProt Q15116).
T1 construct: expressed in transfected cells; host or cells: Jurkat cell line over-expressing human PD-1
T1 sequence (Q15116 25-288): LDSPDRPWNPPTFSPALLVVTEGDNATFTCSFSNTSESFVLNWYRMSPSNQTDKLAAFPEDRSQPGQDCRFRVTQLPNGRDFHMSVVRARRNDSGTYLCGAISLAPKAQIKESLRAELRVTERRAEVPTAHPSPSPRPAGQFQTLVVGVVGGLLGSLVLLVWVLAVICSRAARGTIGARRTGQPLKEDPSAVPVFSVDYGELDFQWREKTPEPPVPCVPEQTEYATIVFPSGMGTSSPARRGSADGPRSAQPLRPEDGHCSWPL
As to the kind of experiment: Jurkat-PD-1 Cell Binding High-Content Screening Assay (CBA); Jurkat hPD1-PDL1 assay. The settings on record: Jurkat cell line over-expressing human PD-1; PE-labeled PD-L1-Ig 20 nM final; compound incubated 2 hours at 37° C.; read-out: Jurkat HPD1-PDL1 IC50. The procedure, abridged:
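Cell binding by imaging: Jurkat line stably over-expressing human PD-1, compound pre-exposure 2 h at 37° C, PE-conjugated PD-L1-Ig 20 nM final, medium DMEM containing 10% FCS.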
With `CC(C)C[C@@H]1NC(=O)CSC[C@@H](C(=O)N[C@@H](C)C(N)=O)NC(=O)[C@H]([C@@H](C)O)NC(=O)[C@H](C(C)C)NC(=O)[C@H](CC(C)C)NC(=O)[C@H](CCCNC(=N)N)NC(=O)[C@H](Cc2ccccc2)N(C)C(=O)[C@H](C)N(C)C(=O)[C@H](CCCNC(=N)N)NC(=O)[C@H](Cc2ccc(-c3ccccc3)cc2)NC(=O)[C@H](C(C)C)NC(=O)[C@H](Cc2c[nH]c3ccccc23)NC(=O)[C@H](CC(=O)O)NC(=O)[C@H](Cc2ccc(O)cc2)NC1=O` [Example 1319] ({CH2CO}-LYDWV[Bip]R[NMeA][NMeF]RLVTCA-NH2; thioether N-14), the negative-log IC50 (pIC50) – broadly, −log10 of the IC50, conventionally taken in molar units – is 6.89.
Then `CC(C)C[C@@H]1NC(=O)[C@H](CCN)NC(=O)[C@H](Cc2ccccc2)N(C)C(=O)[C@H](C)N(C)C(=O)[C@H](CCCNC(=N)N)NC(=O)[C@H](Cc2ccc(-c3ccccc3)cc2)NC(=O)[C@H](C(C)C)NC(=O)[C@H](Cc2c[nH]c3ccccc23)NC(=O)[C@H](CC(=O)O)NC(=O)[C@H](Cc2ccc(O)cc2)NC(=O)[C@H](CC(N)=O)NC(=O)CSC[C@@H](C(=O)N[C@@H](C)C(N)=O)NC(=O)[C@H]([C@@H](C)O)NC(=O)[C@H](C(C)C)NC1=O` [Example 1320] ({CH2CO}-NYDWV[Bip]R[NMeA][NMeF][Dab]LVTCA-NH2; thioether N-14), with 6.82; and `CC(C)C[C@@H]1NC(=O)[C@H](CCN)NC(=O)[C@H](Cc2ccccc2)N(C)C(=O)[C@H](C)N(C)C(=O)[C@H](CCCNC(=N)N)NC(=O)[C@H](Cc2ccc(-c3ccccc3)cc2)NC(=O)[C@H](C(C)C)NC(=O)[C@H](Cc2c[nH]c3ccccc23)NC(=O)[C@H](CC(=O)O)NC(=O)[C@H](Cc2ccc(O)cc2)NC(=O)[C@H](Cc2cnc[nH]2)NC(=O)CSC[C@@H](C(=O)N[C@@H](C)C(N)=O)NC(=O)[C@H]([C@@H](C)O)NC(=O)[C@H](C(C)C)NC1=O` [Example 1321] ({CH2CO}-HYDWV[Bip]R[NMeA][NMeF][Dab]LVTCA-NH2; thioether N-14), with 6.96; and `CC(C)C[C@@H]1NC(=O)[C@H](CCN)NC(=O)[C@H](Cc2ccccc2)N(C)C(=O)[C@H](C)N(C)C(=O)[C@H](CCCNC(=N)N)NC(=O)[C@H](Cc2ccc(-c3ccccc3)cc2)NC(=O)[C@H](C(C)C)NC(=O)[C@H](Cc2c[nH]c3ccccc23)NC(=O)[C@H](CC(=O)O)NC(=O)[C@H](Cc2ccc(O)cc2)NC(=O)[C@H](Cc2ccccc2)NC(=O)CSC[C@@H](C(=O)N[C@@H](C)C(N)=O)NC(=O)[C@H]([C@@H](C)O)NC(=O)[C@H](C(C)C)NC1=O` [Example 1322] ({CH2CO}-FYDWV[Bip]R[NMeA][NMeF][Dab]LVTCA-NH2; thioether N-14), with 6.92.
The result for `CC(C)C[C@@H]1NC(=O)[C@H](CCCNC(=N)N)NC(=O)[C@H](Cc2ccccc2)N(C)C(=O)[C@H](C)N(C)C(=O)[C@H](CCCNC(=N)N)NC(=O)[C@H](Cc2ccc(-c3ccccc3)cc2)NC(=O)[C@H](C(C)C)NC(=O)[C@H](Cc2c[nH]c3ccccc23)NC(=O)[C@H](CC(=O)O)NC(=O)[C@H](Cc2ccc(O)cc2)NC(=O)[C@H](CCC(N)=O)NC(=O)CSC[C@@H](C(=O)N[C@@H](C)C(N)=O)NC(=O)[C@H]([C@@H](C)O)NC(=O)[C@H](C(C)C)NC1=O` [Example 1323] ({CH2CO}-QYDWV[Bip]R[NMeA][NMeF]RLVTCA-NH2; thioether N-14) reads 6.29.
For `CC(C)C[C@@H]1NC(=O)[C@H](CCCNC(=N)N)NC(=O)[C@H](Cc2ccccc2)N(C)C(=O)[C@H](C)N(C)C(=O)[C@H](CCCNC(=N)N)NC(=O)[C@H](Cc2ccc(-c3ccccc3)cc2)NC(=O)[C@H](C(C)C)NC(=O)[C@H](Cc2c[nH]c3ccccc23)NC(=O)[C@H](CC(=O)O)NC(=O)[C@H](Cc2ccc(O)cc2)NC(=O)[C@H](Cc2cnc[nH]2)NC(=O)CSC[C@@H](C(=O)N[C@@H](C)C(N)=O)NC(=O)[C@H]([C@@H](C)O)NC(=O)[C@H](C(C)C)NC1=O` [Example 1324] ({CH2CO}-HYDWV[Bip]R[NMeA][NMeF]RLVTCA-NH2; thioether N-14), the negative-log IC50 (pIC50) is 6.57.
`CC(C)C[C@@H]1NC(=O)[C@H](CC(C)C)NC(=O)[C@H](CCCNC(=N)N)NC(=O)[C@H](Cc2ccccc2)N(C)C(=O)[C@H](C)N(C)C(=O)[C@H](CCCNC(=N)N)NC(=O)[C@H](Cc2ccc(-c3ccccc3)cc2)NC(=O)[C@H](C(C)C)NC(=O)[C@H](Cc2c[nH]c3ccccc23)NC(=O)[C@H](CC(=O)O)NC(=O)[C@H](Cc2ccc(O)cc2)NC(=O)[C@H](Cc2ccccc2)NC(=O)CSC[C@@H](C(=O)NCC(N)=O)NC(=O)[C@H](CO)NC1=O` [Example 1325] ({CH2CO}-FYDWV[Bip]R[NMeA][NMeF]RLLSCG-NH2; thioether N-14): the pIC50 is 6.23.
The result for `CC(C)C[C@@H]1NC(=O)[C@H](CCN)NC(=O)[C@H](Cc2ccccc2)N(C)C(=O)[C@H](C)N(C)C(=O)[C@H](CCCNC(=N)N)NC(=O)[C@H](Cc2ccc(-c3ccccc3)cc2)NC(=O)[C@H](C(C)C)NC(=O)[C@H](Cc2c[nH]c3ccccc23)NC(=O)[C@H](CC(=O)O)NC(=O)[C@H](Cc2ccc(O)cc2)NC(=O)[C@H](CCC(N)=O)NC(=O)CSC[C@@H](C(=O)N[C@@H](C)C(N)=O)NC(=O)[C@H]([C@@H](C)O)NC(=O)[C@H](C(C)C)NC1=O` [Example 1326] ({CH2CO}-QYDWV[Bip]R[NMeA][NMeF][Dab]LVTCA-NH2; thioether N-14) reads 6.82; that for `CC(C)C[C@@H]1NC(=O)[C@H](Cc2c[nH]c3ccccc23)NC(=O)[C@H](CC(=O)O)NC(=O)[C@H](Cc2ccc(O)cc2)NC(=O)[C@H](Cc2ccccc2)NC(=O)CSC[C@@H](C(=O)NCC(N)=O)NC(=O)[C@H](CO)NC(=O)[C@H](C(C)C)NC(=O)[C@H](CC(C)C)NC(=O)[C@H](CCCNC(=N)N)NC(=O)[C@H](Cc2ccccc2)N(C)C(=O)[C@H](C)N(C)C(=O)[C@H](CCCNC(=N)N)NC(=O)[C@H](Cc2ccc(-c3ccccc3)cc2)NC1=O` [Example 1327] ({CH2CO}-FYDWL[Bip]R[NMeA][NMeF]RLVSCG-NH2; thioether N-14), 6.92.
The result for `CC(C)C[C@@H]1NC(=O)[C@H](CCCNC(=N)N)NC(=O)[C@H](Cc2ccccc2)N(C)C(=O)[C@H](C)N(C)C(=O)[C@H](CCCNC(=N)N)NC(=O)[C@H](Cc2ccc(-c3ccccc3)cc2)NC(=O)[C@H](C(C)C)NC(=O)[C@H](Cc2c[nH]c3ccccc23)NC(=O)[C@H](CC(=O)O)NC(=O)[C@H](Cc2ccc(O)cc2)NC(=O)[C@H](Cc2ccccc2)NC(=O)CSC[C@@H](C(=O)NC(C)(C)C(N)=O)NC(=O)[C@H](CO)NC(=O)[C@H](C(C)C)NC1=O` [Example 1328] ({CH2CO}-FYDWV[Bip]R[NMeA][NMeF]RLVSC[Aib]-NH2; thioether N-14) reads 6.32; that for `CCC[C@H](NC(=O)[C@@H]1CSCC(=O)N[C@@H](Cc2ccccc2)C(=O)N[C@@H](Cc2ccc(O)cc2)C(=O)N[C@@H](CC(=O)O)C(=O)N[C@@H](Cc2c[nH]c3ccccc23)C(=O)N[C@@H](C(C)C)C(=O)N[C@@H](Cc2ccc(-c3ccccc3)cc2)C(=O)N[C@@H](CCCNC(=N)N)C(=O)N(C)[C@@H](C)C(=O)N(C)[C@@H](Cc2ccccc2)C(=O)N[C@@H](CCCNC(=N)N)C(=O)N[C@@H](CC(C)C)C(=O)N[C@@H](C(C)C)C(=O)N[C@@H](CO)C(=O)N1)C(N)=O` [Example 1329] ({CH2CO}-FYDWV[Bip]R[NMeA][NMeF]RLVSC[Nva]-NH2; thioether N-14), 6.59.
Consider `CC(C)C[C@@H]1NC(=O)[C@H](CCCNC(=N)N)NC(=O)[C@H](Cc2ccccc2)N(C)C(=O)[C@H](C)N(C)C(=O)[C@H](CCCNC(=N)N)NC(=O)[C@H](Cc2ccc(-c3ccccc3)cc2)NC(=O)[C@H](C(C)C)NC(=O)[C@H](Cc2c[nH]c3ccccc23)NC(=O)[C@H](CC(=O)O)NC(=O)[C@H](Cc2ccc(O)cc2)NC(=O)[C@H](Cc2ccccc2)NC(=O)CSC[C@@H](C(=O)NCC(N)=O)NC(=O)[C@H](CN)NC(=O)[C@H](C(C)C)NC1=O` [Example 1330] ({CH2CO}-FYDWV[Bip]R[NMeA][NMeF]RLV[Dap]CG-NH2; thioether N-14), for which the pIC50 was 6.41.
Consider `CC(C)C[C@@H]1NC(=O)[C@H](CCCNC(=N)N)NC(=O)[C@H](Cc2ccccc2)N(C)C(=O)[C@H](C)N(C)C(=O)[C@H](CCCNC(=N)N)NC(=O)[C@H](Cc2ccc(-c3ccccc3)cc2)NC(=O)[C@H](C(C)C)NC(=O)[C@H](Cc2c[nH]c3ccccc23)NC(=O)[C@H](CC(=O)O)NC(=O)[C@H](Cc2ccc(O)cc2)NC(=O)[C@H](Cc2ccccc2)NC(=O)CSC[C@@H](C(=O)N[C@H](C)C(N)=O)NC(=O)[C@H](CO)NC(=O)[C@H](C(C)C)NC1=O` [Example 1331] ({CH2CO}-FYDWV[Bip]R[NMeA][NMeF]RLVSC[dA]-NH2; thioether N-14), for which the pIC50 is 7.10.
The result for `CC(C)C[C@@H]1NC(=O)[C@H](CCCNC(=N)N)NC(=O)[C@H](Cc2ccccc2)N(C)C(=O)[C@H](C)N(C)C(=O)[C@H](CCCNC(=N)N)NC(=O)[C@H](Cc2ccc(-c3ccccc3)cc2)NC(=O)[C@H](C(C)C)NC(=O)[C@H](Cc2c[nH]c3ccccc23)NC(=O)[C@H](CC(=O)O)NC(=O)[C@H](Cc2ccc(O)cc2)NC(=O)[C@H](Cc2ccccc2)NC(=O)CSC[C@@H](C(=O)NCC(N)=O)NC(=O)[C@H](CCN)NC(=O)[C@H](C(C)C)NC1=O` [Example 1332] ({CH2CO}-FYDWV[Bip]R[NMeA][NMeF]RLV[Dab]CG-NH2; thioether N-14) reads 6.10.
The result for `CC(C)C[C@@H]1NC(=O)[C@H](CCCNC(=N)N)NC(=O)[C@H](Cc2ccccc2)N(C)C(=O)[C@H](C)N(C)C(=O)[C@H](CCCNC(=N)N)NC(=O)[C@H](Cc2ccc(-c3ccccc3)cc2)NC(=O)[C@H](C(C)C)NC(=O)[C@H](Cc2c[nH]c3ccccc23)NC(=O)[C@H](CC(=O)O)NC(=O)[C@H](Cc2ccc(O)cc2)NC(=O)[C@H](Cc2ccccc2)NC(=O)CSC[C@@H](C(=O)NCC(N)=O)NC(=O)[C@H](CC(=O)O)NC(=O)[C@H](C(C)C)NC1=O` [Example 1333] ({CH2CO}-FYDWV[Bip]R[NMeA][NMeF]RLVDCG-NH2; thioether N-14) reads 6.17.

The record behind these values is patent US20240360178A1, “MACROCYCLIC IMMUNOMODULATORS” (Bristol-Myers Squibb Company, priority 2021, published 2024).
